Patent US20110150959A1, “WIPE WITH ODOUR CONTROL SUBSTANCE” (SCA Hygiene Products AB, priority 2008, published 2011)

Key:
[1] = Odour reduction by lipid-treated fluff pulp, headspace SPME-GC/MS; settings: pulp with 30% by weight lipid; 1000 ng/ml odour substance; 3 h + 0.5 h at 35° C.; vs untreated pulp
Experimental: Sheets of sulfate pulp from Weyerhaeuser Inc., with the designation NB416, were impregnated with a solution of the tested oil/fat in hexane. To a pulp sheet weighing 10 g was added a solution of 4.29 g oil in 4.29 g hexane. The solution was evenly distributed over the surface of the sheets. When the hexane had evaporated the sheets contained 30% by weight oil/fat and 70% by weight pulp fibers. The treated sheets were defibrated in a Braun multimixer MX32 to produce fluff pulp.
1 g of treated pulp was put in a 60 ml vial, after which 3.9 ml of 0.01 M phosphate buffered saline solution pH 7.4 from Sigma was added. Then 0.1 ml PEG300 with DMS (dimethyl sulfide), DMDS (dimethyl disulfide) and IVA (isovaleric aldehyde) was added so that the concentration of each odour substance in the final solution was 1000 ng/ml.
After 3 h at 35° C. a SPME fiber (Supelco), 75 μm Carboxen-PDMS, was injected into the headspace above the pulp and after an additional 0.5 h the SPME fiber was analyzed with gas chromatography (GC), Thermo Finnigan Trace, with a MS detector. The peak area of each odour substance was determined for samples with treated pulp and the untreated reference pulp. The GC settings were:
Temperature program for GC: 30° C. (7 min), 3° C./min-70° C. (0 min), 40° C./min-250° C. (7 min). Column: ZB-624 (Zebron), 30 m, 0.25 mm i.d. 1.40 μm film thickness Inlet temperature: 250° C. Transfer line: 220° C.
MS: SIM (single ion monitoring). When DMS, IVA and DMDS were analyzed the following mass numbers were detected: 45, 46, 47, 57, 58, 61, 62, 79, 86 and 94.
The odour reduction was determined by comparing the peak area of the tested sample with the same peak area achieved when testing the untreated reference pulp. The calculation of the odour reduction in percent was made by the equation:
Odour reduction=100×(1−Actual peak area/Peak area of sample with untreated pulp)
These ozonized lipids were tested for their odour reducing effect on treated pulp in the same manner as under Trial 1 above. The only exception in the laboratory procedure was the method for treatment of the pulp with Acolectin.

[2] = autoxidation at 100° C., fatty acids not treated with antioxidants; cited from earlier work
[3] = Peroxide value, AOCS Official Method Cd 8-53; format: physicochemical; settings: Trial 2 lipids after ozonization; lipids used for treatment of wipes
Experimental: The degree of oxidation was tested by determining the peroxide value according to the test method AOCS Official Method Cd 8-53 Surplus 2003. The peroxide value for both the starting oils/fats and the ozonized oils/fats was determined.

[4] = Odour reduction by lipid-treated spunlaced nonwoven wipes, headspace SPME-GC/MS; settings: 1 g spunlaced nonwoven treated with 2 g lipid; 1000 ng/ml odour compound
Experimental: A spunlaced nonwoven with the trade name Fibrella 7160, available from Suominen (Finland) was used in these experiments. This material, which consists of about 60% polypropylene fibres and 40% rayon fibres, has a basis weight of about 50 g/m^2. Pieces with a weight of 1 g and an area of 0.020 m^2 were cut from the spunlaced nonwoven sheet. These pieces were then treated with lipids. 2 g of the lipid was dissolved in 4 g of either hexane or acetone and evenly distributed on the piece of nonwoven. Acetone was used to dissolve all ozonated oils and oleic acid while the other not ozonated oils where dissolved in hexane. After several hours, when the solvent had evaporated, the nonwoven pieces were folded and inserted into 60 ml vials, used for SPME analysis. The vials were then flushed with nitrogen gas and sealed.
Vials with a volume of 60 ml containing 1 g spunlaced nonwoven treated with 2 g lipid were used in these tests. The laboratory procedure was the same as earlier described when evaluating the odour reduction of fluffed pulp, see page 10-11. To each vial was added 3.9 ml phosphate buffered saline solution, pH 7.4 and 0.1 ml PEG300 with DMS, DMDS and IVA. The total concentration of each odour compound was 1000 ng/ml.

SMILES	Reduction of odour substances in %, DMDS [1]	Reduction of odour substances in %, DMS [1]	Reduction of odour substances in %, IVA [1]	Relative rate of oxidation [2]	Peroxide value [3]	Reduction of odour substances in %, DMDS [4]	Reduction of odour substances in %, DMS [4]	Reduction of odour substances in %, IVA [4]
CCCCC/C=C\C/C=C\CCCCCCCC(=O)OCC [Ethyl linoleate, ethyl linoleate]	0%	0%	0%	–	–	–	–	–
CCCCC/C=C\C/C=C\CCCCCCCC(=O)O [Linoleic acid]	–	–	–	64	–	–	–	–
CCCCCCCC/C=C\CCCCCCCC(=O)O [Oleic acid, oleic acid]	19.2%	67.5%	9.3%	6	3.1 meqv./kg	83.6%	67.4%	74.5%
CCCCCCCCCCCCCCCCCC(=O)O [Stearic acid]	–	–	–	0.6	–	–	–	–
